These results are taken from ChEMBL document CHEMBL6127118, “Identification of Oral Bioavailable Coumarin Derivatives as Potential AR Antagonists Targeting Prostate Cancer” (J Med Chem, 2024).

The nature of data set [1]: Antiproliferative activity against human Chang liver cells incubated for 72 hrs by MTT assay. It is filed as toxicity, cell-based.
Data set [2] deals with Androgen receptor (Homo sapiens, UniProt P10275, W742C). Description: Antagonist activity at DHT-induced Androgen receptor W741C mutant in human PC-3 cells transfected with ARR2PB-Luc by Dual-Luciferase Reporter assay. It counts as cell-based.
Chain of Androgen receptor (Homo sapiens, UniProt P10275, W742C) (P10275 whole entry W742C): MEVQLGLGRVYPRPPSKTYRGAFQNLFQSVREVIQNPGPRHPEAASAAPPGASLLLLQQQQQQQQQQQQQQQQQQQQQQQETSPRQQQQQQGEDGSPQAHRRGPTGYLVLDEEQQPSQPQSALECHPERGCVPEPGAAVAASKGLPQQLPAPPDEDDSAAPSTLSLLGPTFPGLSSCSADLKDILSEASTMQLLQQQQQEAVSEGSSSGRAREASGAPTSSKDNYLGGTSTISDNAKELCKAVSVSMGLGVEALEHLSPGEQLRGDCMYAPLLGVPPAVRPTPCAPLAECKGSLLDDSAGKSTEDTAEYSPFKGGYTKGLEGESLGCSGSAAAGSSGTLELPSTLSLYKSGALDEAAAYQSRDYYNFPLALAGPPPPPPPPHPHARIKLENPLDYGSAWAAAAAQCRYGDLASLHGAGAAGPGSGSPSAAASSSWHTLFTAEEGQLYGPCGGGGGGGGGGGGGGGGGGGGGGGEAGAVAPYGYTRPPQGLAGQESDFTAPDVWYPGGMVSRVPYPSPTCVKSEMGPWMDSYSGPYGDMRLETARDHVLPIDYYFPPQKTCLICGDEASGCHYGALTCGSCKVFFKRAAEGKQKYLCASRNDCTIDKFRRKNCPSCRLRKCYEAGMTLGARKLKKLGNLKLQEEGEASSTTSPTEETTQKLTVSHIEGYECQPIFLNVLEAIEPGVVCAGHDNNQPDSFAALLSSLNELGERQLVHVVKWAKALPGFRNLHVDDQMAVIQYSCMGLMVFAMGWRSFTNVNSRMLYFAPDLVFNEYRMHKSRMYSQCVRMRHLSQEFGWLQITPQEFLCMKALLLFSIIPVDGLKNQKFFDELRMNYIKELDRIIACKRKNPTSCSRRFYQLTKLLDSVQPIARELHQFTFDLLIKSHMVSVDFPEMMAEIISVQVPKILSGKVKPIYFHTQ
The nature of data set [3]: Apparent volume of distribution in Sprague-Dawley rat at 1 mg/kg, iv. It counts as ADME, organism-based. As to conditions: in vivo, read-out: Vz; call rule not given here.
The target of data set [4] is T1, Androgen receptor (Homo sapiens, UniProt P10275).
T1 sequence (P10275 whole entry): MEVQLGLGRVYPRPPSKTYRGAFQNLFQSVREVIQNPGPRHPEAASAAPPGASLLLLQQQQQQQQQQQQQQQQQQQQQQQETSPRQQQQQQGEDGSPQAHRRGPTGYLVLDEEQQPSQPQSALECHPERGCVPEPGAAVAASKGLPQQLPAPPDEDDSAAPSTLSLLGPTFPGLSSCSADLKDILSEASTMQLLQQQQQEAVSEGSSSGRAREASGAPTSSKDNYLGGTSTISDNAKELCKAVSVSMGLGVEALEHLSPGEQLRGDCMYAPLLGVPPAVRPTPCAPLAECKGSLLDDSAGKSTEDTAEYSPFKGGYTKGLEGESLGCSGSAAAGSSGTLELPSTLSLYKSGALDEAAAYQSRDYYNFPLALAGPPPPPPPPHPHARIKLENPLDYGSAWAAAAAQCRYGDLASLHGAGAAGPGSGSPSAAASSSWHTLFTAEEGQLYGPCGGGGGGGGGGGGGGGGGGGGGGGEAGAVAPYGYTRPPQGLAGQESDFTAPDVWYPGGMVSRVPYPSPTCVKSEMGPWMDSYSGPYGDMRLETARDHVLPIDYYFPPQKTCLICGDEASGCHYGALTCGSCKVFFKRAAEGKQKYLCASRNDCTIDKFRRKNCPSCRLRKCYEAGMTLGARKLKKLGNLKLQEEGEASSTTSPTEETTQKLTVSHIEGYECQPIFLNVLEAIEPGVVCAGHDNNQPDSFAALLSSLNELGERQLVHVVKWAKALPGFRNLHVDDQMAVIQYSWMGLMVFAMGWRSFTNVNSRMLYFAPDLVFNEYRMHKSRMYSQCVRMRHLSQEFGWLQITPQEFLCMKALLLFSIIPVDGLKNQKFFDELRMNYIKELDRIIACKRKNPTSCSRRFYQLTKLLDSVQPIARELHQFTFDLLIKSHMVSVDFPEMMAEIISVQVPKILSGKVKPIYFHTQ
Description: Antagonist activity at DHT-induced Androgen receptor in human LNCaP cells transfected with ARR2PB-eGFP incubated for 3 days. It counts as cell-based.

The nature of data set [5]: Oral bioavailability in Sprague-Dawley rat at 5 mg/kg. It is filed as ADME, organism-based. To be noted: in vivo.
Data set [6] in a line: Half life in Sprague-Dawley rat at 1 mg/kg, iv. It is filed as ADME, organism-based. As to conditions: in vivo.
Data set [7] has as its target Androgen receptor (Homo sapiens, UniProt P10275, F877L/T878A). The data set is described as follows: Antagonist activity at DHT-induced Androgen receptor F876L/[…] mutant in human PC-3 cells transfected with ARR2PB-Luc by Dual-Luciferase Reporter assay. It is filed as cell-based. A general note: A reporter such as luciferase makes a cellular process visible.
Data set [8] is described as follows: Toxicity in CB17 SCID mouse model xenografted with human LNCaP cells assessed as drug tolerance at 60 mg/kg, po bid for 32 days. To be noted: in vivo, 768 h, time 32 day. It counts as organism-based.
Data set [9] is described as follows: Clearance in Sprague-Dawley rat at 1 mg/kg, iv. It is filed as ADME, organism-based. To be noted: in vivo.
Data set [10] can be described thus: Apparent volume of distribution in Sprague-Dawley rat at 5 mg/kg, po. It is filed as ADME, organism-based. To be noted: in vivo.
A further data set has as its system NIH3T3. Description: Antiproliferative activity against mouse NIH3T3 cells incubated for 72 hrs by MTT assay. As to conditions: nih3t3, 72 h. It counts as toxicity, cell-based. On the technique in general: Tetrazolium assays rely on reduction of a dye to a coloured formazan, in cell work by metabolically active cells.
A short description of data set [11]: AUC (0 to t) in Sprague-Dawley rat at 1 mg/kg, iv. It counts as ADME, organism-based. As to conditions: in vivo.
Data set [12] in a line: Cmax in Sprague-Dawley rat at 1 mg/kg, iv. It is filed as ADME, organism-based. As to conditions: in vivo.
Data set [13] is described as follows: Clearance in Sprague-Dawley rat at 5 mg/kg, po. It counts as ADME, organism-based. To be noted: in vivo.
A short description of data set [14]: Cmax in Sprague-Dawley rat at 5 mg/kg, po. It is filed as ADME, organism-based. To be noted: in vivo.
Data set [15] can be described thus: AUC (0 to t) in Sprague-Dawley rat at 5 mg/kg, po. It is filed as ADME, organism-based. To be noted: in vivo.
Data set [16] in a line: Toxicity in CB17 SCID mouse model xenografted with human LNCaP cells assessed as body weight loss at 60 mg/kg, po bid for 32 days. It is filed as organism-based. To be noted: in vivo, 768 h, time 32 day. In general terms: In xenograft studies the graft and the host belong to different species.
The nature of data set [17]: Half life in Sprague-Dawley rat at 5 mg/kg, po. To be noted: in vivo. It counts as ADME, organism-based.
Another data set has as its system GES1. The data set is described as follows: Antiproliferative activity against human GES1 cells incubated for 72 hrs by MTT assay. It counts as toxicity, cell-based. As to conditions: ges1, 72 h, time 72 hrs.
A short description of data set [18]: Toxicity in CB17 SCID mouse model xenografted with human LNCaP cells assessed as signs of toxicity at 60 mg/kg, po bid for 32 days. It counts as organism-based. As to conditions: in vivo, 768 h, time 32 day.

Chain of Androgen receptor (Homo sapiens, UniProt P10275, F877L/T878A) (P10275 whole entry F877L/T878A): as the sequence (P10275 whole entry W742C) above, with C742W, F877L, T878A counted along it

In general, IC50 refers to the concentration at which inhibition is half-maximal. The term bioavailability denotes dose-corrected exposure relative to a reference, in per cent. A higher bioavailability goes with much systemic uptake. As a reminder, the half-life is how long it takes for the measured level to halve. As a reminder, the clearance is a measure of how efficiently the substance is removed, as volume per time. Higher therefore signals efficient removal. One may read the AUC(0-t) as exposure summed from dosing to a finite time, without extrapolation to infinity. A higher AUC(0-t) goes with more exposure. Broadly, the Cmax is the maximum level reached in the sampled fluid or tissue. Broadly, the CL/F is clearance divided by bioavailability, as obtained after extravascular dosing. As for `CN(Cc1ccc(F)cc1)c1ccc2c(C(F)(F)F)cc(=O)oc2c1`, the Activity result (in data set [1]; in data set [8]; in the data set with NIH3T3; in data set [16]; with GES1; in [18]) was “Non-Toxic” each time. For the same molecule, the values for the IC50 against Androgen receptor [2], on Androgen receptor [4] and against Androgen receptor [7] were 160 nM, 51 nM and 170 nM, respectively. The Vd in data set [3] was 1.81 L/kg. Besides, the bioavailability in [5] is 66.2%. Further, the half-life in data set [6] was 0.5 h; in data set [17], 4.82 h. Moreover, the clearance in data set [9] was 41 mL/min/kg. In data set [10], the Vz was 24.6 L/kg. For the same molecule, the figures for the AUC(0-t) in data set [11] and in data set [15] were 426 ng·h/mL and 1410 ng·h/mL, respectively. The values for the maximum concentration (Cmax) in data set [12] and in data set [14] were 1060 ng/mL and 353 ng/mL, respectively. The molecule also gave a CL/F in [13] of 58.5 mL/min/kg.
